Experimental data taken from ChEMBL document CHEMBL5390204, “Persephacin Is a Broad-Spectrum Antifungal Aureobasidin Metabolite That Overcomes Intrinsic Resistance in Aspergillus fumigatus” (J Nat Prod, 2023).
≈ marks a conversion by molar mass, not a printed value.

How the values were obtained:
Format in all cases: functional
[1] = test system: Mucor circinelloides; assay: Antifungal activity against Mucor circinelloides 235C7 assessed as reduction in fungal viability incubated for 48 hrs by microplate reader analysis
[2] = test system: Pichia kudriavzevii; assay: Antifungal activity against Candida krusei ATCC 6258 (Y-7179) assessed as reduction in fungal growth incubated for 48 hrs by microplate reader analysis
[3] = test system: Candida albicans; assay: Antifungal activity against Candida albicans 30 assessed as inhibition in fungal growth incubated for 48 hrs by microplate reader analysis
[4] = test system: Cryptococcus neoformans; assay: Antifungal activity against Cryptococcus neoformans H99 assessed as inhibition in fungal growth incubated for 48 hrs in presence of 5% serum by microplate reader analysis
[5] = test system: Fusarium solani; assay: Antifungal activity against Fusarium solani 243G2 assessed as reduction in fungal growth incubated for 48 hrs by microplate reader analysis
[6] = test system: [Candida] auris; assay: Antifungal activity against multidrug-resistant Candida auris 385 assessed as inhibition in fungal growth incubated for 48 hrs by microplate reader analysis; conditions: Candidozyma auris
[7] = test system: Candida albicans; assay: Antifungal activity against Candida albicans SC5314 assessed as reduction in fungal growth incubated for 48 hrs by microplate reader analysis
[8] = test system: [Candida] auris; assay: Antifungal activity against multidrug-resistant Candida auris 387 assessed as inhibition in fungal growth incubated for 48 hrs by microplate reader analysis; conditions: Candidozyma auris
[9] = test system: Candida albicans; assay: Antifungal activity against Candida albicans SC5314 assessed as reduction in fungal viability incubated for 48 hrs by microplate reader analysis
[10] = test system: Pichia kudriavzevii; assay: Antifungal activity against multidrug-resistant Candida krusei 397 assessed as inhibition in fungal growth incubated for 48 hrs by microplate reader analysis
[11] = test system: Saccharomyces cerevisiae; assay: Antifungal activity against multidrug-resistant Saccharomyces cerevisiae 399 assessed as inhibition in fungal growth incubated for 48 hrs by microplate reader analysis
[12] = test system: Candida parapsilosis; assay: Antifungal activity against Candida parapsilosis 15 assessed as inhibition in fungal growth incubated for 48 hrs by microplate reader analysis; conditions: Lodderomyces parapsilosis
[13] = test system: Clavispora lusitaniae; assay: Antifungal activity against multidrug-resistant Candida lusitaniae 398 assessed as inhibition in fungal growth incubated for 48 hrs by microplate reader analysis
[14] = test system: Candida albicans; assay: Antifungal activity against Candida albicans 24 assessed as inhibition in fungal growth incubated for 48 hrs by microplate reader analysis
[15] = test system: Fusarium solani; assay: Antifungal activity against Fusarium solani 243G2 assessed as reduction in fungal viability incubated for 48 hrs by microplate reader analysis
[16] = test system: Candida albicans; assay: Antifungal activity against Candida albicans ATCC 10231 assessed as reduction in fungal growth incubated for 48 hrs by microplate reader analysis
[17] = test system: Rhizopus arrhizus; assay: Antifungal activity against Rhizopus oryzae FGSC 9543 assessed as reduction in fungal viability incubated for 48 hrs by microplate reader analysis
[18] = test system: Hamigera insecticola; assay: Antifungal activity against Hamigera insecticola NRRL35442 assessed as reduction in fungal growth incubated for 48 hrs by microplate reader analysis
[19] = test system: [Candida] auris; assay: Antifungal activity against multidrug-resistant Candida auris 383 assessed as inhibition in fungal growth incubated for 48 hrs by microplate reader analysis; conditions: Candidozyma auris
[20] = test system: Aspergillus flavus; assay: Antifungal activity against Aspergillus flavus NRRL485 assessed as reduction in fungal growth incubated for 48 hrs by microplate reader analysis
[21] = test system: Candida albicans; assay: Antifungal activity against Candida albicans ATCC 10231 assessed as reduction in fungal viability incubated for 48 hrs by microplate reader analysis
[22] = test system: Candida parapsilosis; assay: Antifungal activity against Candida parapsilosis 28 assessed as inhibition in fungal growth incubated for 48 hrs by microplate reader analysis; conditions: Lodderomyces parapsilosis
[23] = test system: Nakaseomyces glabratus; assay: Antifungal activity against Candida glabrata 2 assessed as inhibition in fungal growth incubated for 48 hrs by microplate reader analysis
[24] = test system: Saccharomyces cerevisiae; assay: Antifungal activity against multidrug-resistant Saccharomyces cerevisiae 400 assessed as inhibition in fungal growth incubated for 48 hrs by microplate reader analysis
[25] = test system: Candida albicans; assay: Antifungal activity against Candida albicans 1 assessed as inhibition in fungal growth incubated for 48 hrs by microplate reader analysis
[26] = test system: [Candida] auris; assay: Antifungal activity against multidrug-resistant Candida auris 389 assessed as inhibition in fungal growth incubated for 48 hrs by microplate reader analysis; conditions: Candidozyma auris
[27] = test system: Aspergillus fumigatus; assay: Antifungal activity against Aspergillus fumigatus NRRL5109 assessed as reduction in fungal growth incubated for 48 hrs by microplate reader analysis
[28] = test system: [Candida] haemuloni; assay: Antifungal activity against multidrug-resistant Candida haemulonii 393 assessed as inhibition in fungal growth incubated for 48 hrs by microplate reader analysis; conditions: Candidozyma haemuli
[29] = test system: Candida parapsilosis; assay: Antifungal activity against Candida parapsilosis ATCC 22019 (Y-12969) assessed as reduction in fungal viability incubated for 48 hrs by microplate reader analysis
[30] = test system: Pichia kudriavzevii; assay: Antifungal activity against Candida krusei ATCC 6258 (Y-7179) assessed as reduction in fungal viability incubated for 48 hrs by microplate reader analysis
[31] = test system: [Candida] auris; assay: Antifungal activity against multidrug-resistant Candida auris 384 assessed as inhibition in fungal growth incubated for 48 hrs by microplate reader analysis; conditions: Candidozyma auris
[32] = test system: Candida duobushaemulonii; assay: Antifungal activity against multidrug-resistant Candida duobushaemulonii 392 assessed as inhibition in fungal growth incubated for 48 hrs by microplate reader analysis; conditions: Candidozyma duobushaemuli
[33] = test system: Nakaseomyces glabratus; assay: Antifungal activity against Candida glabrata 20 assessed as inhibition in fungal growth incubated for 48 hrs by microplate reader analysis
[34] = test system: [Candida] auris; assay: Antifungal activity against multidrug-resistant Candida auris 381 assessed as inhibition in fungal growth incubated for 48 hrs in presence of 10% serum by microplate reader analysis; conditions: Candidozyma auris
[35] = test system: Candida tropicalis; assay: Antifungal activity against Candida tropicalis ATCC750 (Y-12699) assessed as reduction in fungal growth incubated for 48 hrs by microplate reader analysis
[36] = test system: [Candida] auris; assay: Antifungal activity against multidrug-resistant Candida auris 381 assessed as inhibition in fungal growth incubated for 48 hrs by microplate reader analysis; conditions: Candidozyma auris
[37] = test system: Paecilomyces lilacinus; assay: Antifungal activity against Paecilomyces lilacinus 165E10 assessed as reduction in fungal growth incubated for 48 hrs by microplate reader analysis; conditions: Purpureocillium lilacinum
[38] = test system: Aspergillus fumigatus; assay: Antifungal activity against Aspergillus fumigatus ATCC MYA-3627 assessed as inhibition in fungal growth incubated for 48 hrs in presence of 5% serum by microplate reader analysis
[39] = test system: Candida parapsilosis; assay: Antifungal activity against Candida parapsilosis 7 assessed as inhibition in fungal growth incubated for 48 hrs by microplate reader analysis; conditions: Lodderomyces parapsilosis
[40] = test system: Cryptococcus neoformans; assay: Antifungal activity against Cryptococcus neoformans H99 assessed as inhibition in fungal growth incubated for 48 hrs in presence of 0% serum by microplate reader analysis
[41] = test system: Candida parapsilosis; assay: Antifungal activity against Candida parapsilosis 9 assessed as inhibition in fungal growth incubated for 48 hrs by microplate reader analysis; conditions: Lodderomyces parapsilosis
[42] = test system: Aspergillus fumigatus; assay: Antifungal activity against Aspergillus fumigatus NRRL5109 assessed as reduction in fungal viability incubated for 48 hrs by microplate reader analysis
[43] = test system: Cryptococcus neoformans; assay: Antifungal activity against Cryptococcus neoformans H99 assessed as inhibition in fungal growth incubated for 48 hrs in presence of 10% serum by microplate reader analysis

Compound: C[C@@H]1[C@H](O)[C@@H](C)/C=C/C=C/C=C/C=C/C=C/C=C/C=C/[C@H](O[C@@H]2O[C@H](C)[C@@H](O)[C@H](N)[C@@H]2O)C[C@@H]2O[C@](O)(C[C@@H](O)C[C@@H](O)[C@H](O)CC[C@@H](O)C[C@@H](O)CC(=O)O[C@H]1C)C[C@H](O)[C@H]2C(=O)O [AMPHOTERICIN B]
- MFC<=99.9 [1]: 1.3 µM (≈ 1.2 µg/mL)
- MFC [2]: 5 µM (≈ 4.62 µg/mL)
- MIC80 [2]: 2.5 µM (≈ 2.31 µg/mL)
- MIC80 [3]: 2.5 µM (≈ 2.31 µg/mL)
- MIC80 [4]: < 0.2 µM
- MFC [5]: 1.3 µM (≈ 1.2 µg/mL)
- MIC80 [5]: 1.3 µM (≈ 1.2 µg/mL)
- MIC80 [6]: 2.5 µM (≈ 2.31 µg/mL)
- MFC [7]: 2.5 µM (≈ 2.31 µg/mL)
- MIC80 [7]: 0.6 µM (≈ 0.554 µg/mL)
- MIC80 [8]: 2.5 µM (≈ 2.31 µg/mL)
- MFC<=99.9 [9]: 2.5 µM (≈ 2.31 µg/mL)
- MIC80 [10]: 2.5 µM (≈ 2.31 µg/mL)
- MIC80 [11]: 2.5 µM (≈ 2.31 µg/mL)
- MIC80 [12]: 2.5 µM (≈ 2.31 µg/mL)
- MIC80 [13]: 0.6 µM (≈ 0.554 µg/mL)
- MIC80 [14]: 1.3 µM (≈ 1.2 µg/mL)
- MFC<=99.9 [15]: 1.3 µM (≈ 1.2 µg/mL)
- MFC [16]: 2.5 µM (≈ 2.31 µg/mL)
- MIC80 [16]: 0.6 µM (≈ 0.554 µg/mL)
- MFC<=99.9 [17]: 0.3 µM (≈ 0.277 µg/mL)
- MFC [18]: 10 µM (≈ 9.24 µg/mL)
- MIC80 [18]: 2.5 µM (≈ 2.31 µg/mL)
- MIC80 [19]: 2.5 µM (≈ 2.31 µg/mL)
- MFC [20]: 10 µM (≈ 9.24 µg/mL)
- MIC80 [20]: 5 µM (≈ 4.62 µg/mL)
- MFC<=99.9 [21]: 2.5 µM (≈ 2.31 µg/mL)
- MIC80 [22]: 1.3 µM (≈ 1.2 µg/mL)
- MIC80 [23]: 0.3 µM (≈ 0.277 µg/mL)
- MIC80 [24]: 1.3 µM (≈ 1.2 µg/mL)
- MIC80 [25]: 0.6 µM (≈ 0.554 µg/mL)
- MIC80 [26]: 5 µM (≈ 4.62 µg/mL)
- MFC [27]: 5 µM (≈ 4.62 µg/mL)
- MIC80 [27]: 2.5 µM (≈ 2.31 µg/mL)
- MIC80 [28]: 5 µM (≈ 4.62 µg/mL)
- MFC<=99.9 [29]: 5 µM (≈ 4.62 µg/mL)
- MFC<=99.9 [30]: 5 µM (≈ 4.62 µg/mL)
- MIC80 [31]: 2.5 µM (≈ 2.31 µg/mL)
- MIC80 [32]: 5 µM (≈ 4.62 µg/mL)
- MIC80 [33]: 0.6 µM (≈ 0.554 µg/mL)
- MIC80 [34]: 0.3 µM
- MFC [35]: 2.5 µM (≈ 2.31 µg/mL)
- MIC80 [35]: 1.3 µM (≈ 1.2 µg/mL)
- MIC80 [36]: 1.3 µM (≈ 1.2 µg/mL)
- MFC [37]: > 10 µM
- MIC80 [37]: > 10 µM
- MIC80 [38]: < 0.1 µM
- MIC80 [39]: 2.5 µM (≈ 2.31 µg/mL)
- MIC80 [40]: 1.3 µM
- MIC80 [41]: 2.5 µM (≈ 2.31 µg/mL)
- MFC<=99.9 [42]: 5 µM (≈ 4.62 µg/mL)
- MIC80 [43]: < 0.2 µM
